Assay results published in EP4755886A1 (Chengdu Chipscreen Pharmaceutical Ltd., priority 2023, dated 2025).
Where two headings read alike, the source gives them in different places.

Experiments:
wild-type HCT-116 cells = assay: Cell proliferation (MTS), wild-type HCT-116; type: cell-based; details: Homo sapiens, 240 h; wild-type HCT-116, 10 days with compound, MTS reading; read-out: IC50 HCT116 WT
Outline: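 Wild-type HCT-116 cells were seeded at 100 cells/well in McCoy's 5A/10% FBS. From day 1 they were treated with compound in 3-fold dilutions (initial 20 µM, 8 points) for 10 days at 37° C. Proliferation was read by MTS on day 11, and IC50 was obtained from a four-parameter logistic fit.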

CYP450 enzyme 3A4 = biological target: T1, CYP450 enzyme 3A4 (Homo sapiens, UniProt P08684); assay: CYP inhibition test in human liver microsomes; type: in vitro ADME; details: human liver microsomes 0.1 mg/mL
T1 construct: Liver microsomes (purchased from BIOIVT, Cat. No.: X008070); tissue BIOIVT X008070; host or cells: human liver microsomes
Method: (§1) Experimental materials: human liver microsomes (purchased from BIOIVT);
(§2) PBS: 0.1 M KH2PO4 and K2HPO4 buffers, pH 7.4.
MgCl2: a certain amount of MgCl2 was weighed out and prepared into a 20 mM MgCl2 solution with PBS.
NADPH (Chinese name: reduced nicotinamide adenine dinucleotide phosphate, purchased from Sigma, Cat. No.: 481973-500 mg): a certain amount of NADPH was weighed out and a 5 mM solution of NADPH was prepared with a 20 mM MgCl2 solution, and the final incubation concentration was 1 mM.
Compounds: 3 mM, 1 mM, 0.3 mM, 0.1 mM, 0.03 mM, 0.01 mM, and 0 mM solutions of the test compounds were prepared with a DMSO-methanol (v:v = 1:9) solution, and the final incubation concentrations were 30 µM, 10 µM, 3 µM, 1 µM, 0.3 µM, 0.1 µM, and 0 µM. 30 µM, 10 µM, 3 µM, 1 µM, 0.3 µM, and 0 µM solutions of the positive compound (ketoconazole) were prepared with a DMSO-methanol (v:v = 1:9) solution, and the final incubation concentrations were 0.3 µM, 0.1 µM, 0.03 µM, 0.01 µM, 0.003 µM, and 0 µM.
Substrate working solutions: 200 µM and 15 µM solutions of substrate working solutions (testosterone and midazolam) were prepared with PBS, separately, and the final incubation concentrations were 40 µM and 3 µM.
Liver microsomes (purchased from BIOIVT, Cat. No.: X008070): the liver microsomes were diluted to […] with PBS, and the final incubation concentration was 0.1 mg/mL.
The prepared test compounds or positive compounds were added to a 96-well plate, and then the prepared human liver microsome working solution and substrate working solution were added. The mixture was mixed well. The mixture was pre-incubated in a thermostat incubator at 37 °C for 5 min, and then the prepared NADPH was added to start the reaction. The mixture was incubated for 5 min or 10 min. After the incubation was completed, a pre-cooled acetonitrile solution containing an internal standard was added to terminate the reaction. After protein precipitation, the mixture was vortexed for 5 min with shaking and then centrifuged at 4000 rpm for 10 min. The supernatant was collected and added to the 96-well plate. The content (peak concentration ratio) of the metabolites of the substrate was determined by an LC-MS/MS method. The residual activity and the half maximal inhibitory concentration (IC50) of the enzyme were calculated based on the detected content.
Percentage of remaining enzyme activity: The activity of each subtype of CYP450 enzyme was expressed as the amount of metabolite produced, and the percentage of remaining enzyme activity was calculated as follows: [formula]
The concentrations of the test substances and the corresponding residual activity percentages were fitted using a nonlinear model of Excel software, and the concentration of the test substances at which 50% inhibition of metabolite production was achieved was the IC50 value.

[1] = Human liver microsome stability; type: in vitro ADME; details: pH 7.4; human liver microsomes 0.5 mg/mL, compound 1 µM, NADPH 1 mM, 37 °C
Method: as §1, §2
MgCl2: a certain amount of MgCl2 was weighed out and prepared into a 16 mM MgCl2 solution with PBS.
NADPH (Chinese name: reduced nicotinamide adenine dinucleotide phosphate, purchased from Sigma, Cat. No.: 481973-500 mg): a certain amount of NADPH was weighed out and a 4 mM solution of NADPH was prepared with a 16 mM MgCl2 solution, and the final incubation concentration was 1 mM.
Compounds: 4 µM solutions of the test compounds and positive compounds were prepared with PBS, and the final incubation concentration was 1 µM.
Liver microsomes (purchased from BIOIVT, Cat. No.: X008070): the liver microsomes were diluted to […] with PBS, and the final incubation concentration was 0.5 mg/mL.
The prepared test compound or positive compound was added to a test tube, and then the prepared NADPH was added. The mixture was mixed well. The mixture was pre-incubated in a thermostat incubator at 220 rpm at 37 °C for 5 min, and the prepared liver microsomes were added to start the reaction. All steps were performed in replicate wells. At 0 min, 15 min, 30 min, 45 min, and 60 min, a certain volume of glacial acetonitrile solution containing an internal standard was added to the corresponding tube to precipitate the protein. The mixture was vortexed for 5 min with shaking, and then centrifuged at 4000 rpm for 10 min. […] The samples were analyzed by LC-MS/MS.
The concentrations (peak area ratios) of the example compounds were determined by LC-MS/MS. Rate constants were obtained by plotting "Ln (residual amount of compound %)" versus "incubation time" in Excel, thereby calculating the half-lives and intrinsic clearances of the drugs and providing a basis for the prediction of the in-vivo clearance.
[formula] CLH = CLint × fu × Qh /(CLint×fu+Qh) [formula]
Stability in human liver microsomes

[2] = substrate midazolam 3 µM, read-out: IC50 3A4-Midazolam
[3] = substrate testosterone 40 µM, read-out: IC50 3A4-Testosterone

T1 sequence (P08684 whole entry): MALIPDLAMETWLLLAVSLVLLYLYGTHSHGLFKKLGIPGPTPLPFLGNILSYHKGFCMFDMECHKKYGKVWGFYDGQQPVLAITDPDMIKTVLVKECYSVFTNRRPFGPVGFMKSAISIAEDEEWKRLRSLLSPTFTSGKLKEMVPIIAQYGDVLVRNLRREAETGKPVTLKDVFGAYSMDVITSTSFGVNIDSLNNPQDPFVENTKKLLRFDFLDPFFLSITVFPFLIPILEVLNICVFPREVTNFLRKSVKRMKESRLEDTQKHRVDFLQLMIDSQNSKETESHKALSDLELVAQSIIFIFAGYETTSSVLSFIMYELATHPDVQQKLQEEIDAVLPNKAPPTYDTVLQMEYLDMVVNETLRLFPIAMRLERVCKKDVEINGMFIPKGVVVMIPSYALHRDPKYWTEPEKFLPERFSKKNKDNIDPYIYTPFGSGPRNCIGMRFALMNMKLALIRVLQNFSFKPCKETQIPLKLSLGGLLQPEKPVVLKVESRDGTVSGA

| SMILES | IC50 (wild-type HCT-116 cells) [nM] | IC50 (CYP450 enzyme 3A4; [2]) [µM] | IC50 (CYP450 enzyme 3A4; [3]) [µM] | half-life at 1 µM [1] [min] |
| --- | --- | --- | --- | --- |
| CN(C(=O)c1cc2c(cc1F)nc(N)c1cnn(C)c12)[C@@H]1COc2cc(C#Cc3cnn(C)c3)ccc21 [Compound 5A, (S)-4-amino-7-fluoro-N,1-dimethyl-N-(6-((1-methyl-1H-pyrazol-4-yl)ethynyl)-2,3-dihydrobenzofuran-3-yl)-1H-pyrazolo[4,3-c]quinoline-8-carboxamide] | 170 | > 30 | > 30 | 66.5 |
| Cc1nn(C)cc1C#Cc1ccc2c(c1)OC[C@H]2N(C)C(=O)c1cc2c3c(c(N)nc2cc1Cl)COC3 [Compound 50A, (S)-4-amino-7-chloro-N-(6-((1,3-dimethyl-1H-pyrazol-4-yl)ethynyl)-2,3-dihydrobenzofuran-3-yl)-N-methyl-1,3-dihydrofuro[3,4-c]quinoline-8-carboxamide] | 431 | > 30 | > 30 | 49.9 |
| CN(C(=O)c1cc2c3c(c(N)nc2cc1Cl)COC3)[C@@H]1COc2cc(C#Cc3cnn(C4CC4)c3)ccc21 [Compound 43A, (S)-4-amino-7-chloro-N-(6-((1-cyclopropyl-1H-pyrazol-4-yl)ethynyl)-2,3-dihydrobenzofuran-3-yl)-N-methyl-1,3-dihydrofuro[3,4-c]quinoline-8-carboxamide] | 646 | > 30 | > 30 | 122 |
